Reference: patent US11787785B2 (NOVARTIS AG, priority 2021, dated 2023)

Target: T1, WIZ protein (HiBit-WIZ fusion protein) (Homo sapiens, UniProt O95785+Q96SW2)
T1 construct: expressed in transfected cells
Assay: Quantification of WIZ protein levels in HiBit tag fusion protein assay (WIZ HiBit assay in 293T cells)
Type: cell-based
Conditions: for Dmax at 25 µM / remaining activity at 25 µM: HEK-293T, 293T cells; for Dmax at 25 µM: 100 − Amax, read-out: % degradation of WIZ (100 − Amax); for remaining activity at 25 µM: DMSO-normalized, curve-fitted percentage of WIZ-HiBit remaining at 25 uM, read-out: WIZ Amax; for DC50: WIZ HiBit assay in 293T cells, 10-point, 5-fold dose response, highest concentration 25 μM, about 18 hours, read-out: WIZ AC50
How it was run: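 Luminescence after LgBit complementation quantified remaining HiBit-WIZ in lysates of single-copy stable 293T lines. Cells dosed ~18 h at 37 °C with 10-point, 5-fold dilutions (highest 25 μM); DMSO set to 100%, fitted curve gave % remaining at 25 μM (Amax).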

T1 sequence (O95785 whole entry, the tested form may be a part): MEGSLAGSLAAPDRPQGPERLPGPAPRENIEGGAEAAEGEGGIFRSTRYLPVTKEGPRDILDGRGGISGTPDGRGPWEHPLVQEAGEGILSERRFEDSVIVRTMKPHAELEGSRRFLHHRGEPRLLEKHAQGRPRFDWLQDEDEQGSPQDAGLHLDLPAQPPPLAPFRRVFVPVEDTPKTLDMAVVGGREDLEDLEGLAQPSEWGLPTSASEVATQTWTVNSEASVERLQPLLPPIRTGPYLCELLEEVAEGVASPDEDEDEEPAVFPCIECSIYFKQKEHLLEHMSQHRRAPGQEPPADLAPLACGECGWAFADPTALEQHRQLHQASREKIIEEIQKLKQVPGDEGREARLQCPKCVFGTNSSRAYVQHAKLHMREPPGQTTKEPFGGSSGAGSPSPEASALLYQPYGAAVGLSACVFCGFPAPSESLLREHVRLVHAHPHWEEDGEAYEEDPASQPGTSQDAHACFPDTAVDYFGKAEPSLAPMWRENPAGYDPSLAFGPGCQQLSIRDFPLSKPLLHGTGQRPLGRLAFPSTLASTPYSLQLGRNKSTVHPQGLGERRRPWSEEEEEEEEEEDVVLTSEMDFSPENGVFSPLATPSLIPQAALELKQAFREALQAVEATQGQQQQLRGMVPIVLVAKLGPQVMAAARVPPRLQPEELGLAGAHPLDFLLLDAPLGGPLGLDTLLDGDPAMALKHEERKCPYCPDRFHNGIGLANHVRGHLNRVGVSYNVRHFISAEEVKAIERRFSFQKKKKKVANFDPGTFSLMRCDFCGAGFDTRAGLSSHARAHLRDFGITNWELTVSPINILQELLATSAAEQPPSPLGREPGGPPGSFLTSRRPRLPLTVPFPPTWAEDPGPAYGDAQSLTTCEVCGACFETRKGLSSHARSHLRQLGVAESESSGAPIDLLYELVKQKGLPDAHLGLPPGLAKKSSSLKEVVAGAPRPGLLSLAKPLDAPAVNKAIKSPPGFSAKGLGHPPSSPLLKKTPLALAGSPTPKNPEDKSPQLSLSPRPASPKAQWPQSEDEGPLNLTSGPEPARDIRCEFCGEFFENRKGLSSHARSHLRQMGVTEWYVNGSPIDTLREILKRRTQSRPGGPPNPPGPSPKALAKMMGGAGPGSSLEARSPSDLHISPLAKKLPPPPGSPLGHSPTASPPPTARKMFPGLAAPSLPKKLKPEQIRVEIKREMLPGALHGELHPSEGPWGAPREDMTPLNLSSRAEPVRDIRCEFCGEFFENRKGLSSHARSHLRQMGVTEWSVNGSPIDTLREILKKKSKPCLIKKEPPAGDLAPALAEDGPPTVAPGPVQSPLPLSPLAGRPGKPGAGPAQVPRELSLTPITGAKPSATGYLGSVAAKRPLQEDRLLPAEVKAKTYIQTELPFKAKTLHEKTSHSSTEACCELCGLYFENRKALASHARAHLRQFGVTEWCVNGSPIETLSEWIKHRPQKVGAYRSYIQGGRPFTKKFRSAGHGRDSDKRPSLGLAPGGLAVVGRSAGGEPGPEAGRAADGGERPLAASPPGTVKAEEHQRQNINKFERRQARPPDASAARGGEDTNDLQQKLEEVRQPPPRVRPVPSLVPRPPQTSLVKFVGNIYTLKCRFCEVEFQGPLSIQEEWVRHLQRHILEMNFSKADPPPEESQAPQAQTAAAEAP
T1 sequence (Q96SW2 whole entry, the tested form may be a part): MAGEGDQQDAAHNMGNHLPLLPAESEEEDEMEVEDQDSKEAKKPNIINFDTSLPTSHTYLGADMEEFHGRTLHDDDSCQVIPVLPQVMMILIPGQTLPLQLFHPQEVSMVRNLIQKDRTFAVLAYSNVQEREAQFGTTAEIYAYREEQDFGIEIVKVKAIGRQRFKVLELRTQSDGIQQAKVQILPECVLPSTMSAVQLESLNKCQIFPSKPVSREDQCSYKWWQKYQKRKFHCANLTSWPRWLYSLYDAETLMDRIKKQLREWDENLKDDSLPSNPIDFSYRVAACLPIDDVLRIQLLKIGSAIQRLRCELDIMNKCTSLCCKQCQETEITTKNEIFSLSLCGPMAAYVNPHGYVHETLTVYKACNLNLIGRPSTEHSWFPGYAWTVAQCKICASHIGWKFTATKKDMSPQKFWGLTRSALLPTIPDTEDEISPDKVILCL
T1 sequence (Q16531 whole entry partner, the tested form may be a part): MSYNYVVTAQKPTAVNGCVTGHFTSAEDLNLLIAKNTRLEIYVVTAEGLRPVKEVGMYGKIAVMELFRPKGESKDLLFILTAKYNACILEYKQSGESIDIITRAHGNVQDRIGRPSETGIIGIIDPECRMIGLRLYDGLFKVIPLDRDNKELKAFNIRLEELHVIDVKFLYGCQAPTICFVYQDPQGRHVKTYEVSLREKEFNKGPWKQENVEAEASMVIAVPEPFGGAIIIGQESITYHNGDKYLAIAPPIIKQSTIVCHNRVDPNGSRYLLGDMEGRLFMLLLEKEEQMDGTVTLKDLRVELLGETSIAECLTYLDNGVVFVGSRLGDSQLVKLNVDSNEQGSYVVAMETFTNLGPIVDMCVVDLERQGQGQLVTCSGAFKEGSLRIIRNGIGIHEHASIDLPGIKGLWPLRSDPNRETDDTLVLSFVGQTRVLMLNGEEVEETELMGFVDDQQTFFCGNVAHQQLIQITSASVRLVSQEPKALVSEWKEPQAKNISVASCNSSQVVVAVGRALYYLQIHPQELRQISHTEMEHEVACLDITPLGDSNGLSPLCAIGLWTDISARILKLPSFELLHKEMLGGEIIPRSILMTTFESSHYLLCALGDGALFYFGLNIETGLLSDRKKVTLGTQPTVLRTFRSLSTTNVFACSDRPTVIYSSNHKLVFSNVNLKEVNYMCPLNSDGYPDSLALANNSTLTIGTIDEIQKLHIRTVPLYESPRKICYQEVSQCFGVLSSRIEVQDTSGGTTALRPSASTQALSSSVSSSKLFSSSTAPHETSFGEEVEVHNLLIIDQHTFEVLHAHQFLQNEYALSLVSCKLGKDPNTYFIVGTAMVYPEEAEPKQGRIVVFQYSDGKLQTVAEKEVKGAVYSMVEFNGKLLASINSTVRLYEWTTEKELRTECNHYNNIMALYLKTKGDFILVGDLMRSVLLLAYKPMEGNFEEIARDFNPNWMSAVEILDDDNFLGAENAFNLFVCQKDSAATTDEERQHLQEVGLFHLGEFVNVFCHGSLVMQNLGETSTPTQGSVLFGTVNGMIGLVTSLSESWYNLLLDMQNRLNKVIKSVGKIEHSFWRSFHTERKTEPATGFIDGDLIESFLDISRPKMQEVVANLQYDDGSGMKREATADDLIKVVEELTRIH

SMILES	Dmax at 25 µM [%]	remaining activity at 25 µM [%]	DC50 [nM]
C[C@H]1C[C@H](Cc2ccn3ncc(N4CCC(=O)NC4=O)c3c2)CCN1CC1CCC1 [Example 146]	82	18	51
CN1CCCC(Cc2ccn3ncc(N4CCC(=O)NC4=O)c3c2)CC1 (stereo not drawn) [Example 271, 1-(5-((1-methylazepan-4-yl)methyl)pyrazolo[1,5-a]pyridin-3-yl)dihydropyrimidine-2,4(1H,3H)-dione]	63	37	702
Cc1cn(-c2cnn3ccc(C[C@@H]4CCN(CC5CCC(F)(F)CC5)[C@@H](C)C4)cc23)c(=O)[nH]c1=O [Example 351, 1-(5-(((2S,4R)-1-((4,4-difluorocyclohexyl)methyl)-2-methylpiperidin-4-yl)methyl)pyrazolo[1,5-a]pyridin-3-yl)-5-methylpyrimidine-2,4(1H,3H)-dione]	91	9	47
CO[C@H]1CC[C@@H](CN2CCN(Cc3ccn4ncc(N5CCC(=O)NC5=O)c4c3)C[C@@H]2C)CC1 [Example 211, 1-(5-(((S)-4-(((1s,4R)-4-methoxycyclohexyl)methyl)-3-methylpiperazin-1-yl)methyl)pyrazolo[1,5-a]pyridin-3-yl)dihydropyrimidine-2,4(1H,3H)-dione]	86	14	33
O=C1CCN(c2cnn3ccc(CC4CCN(Cc5cccc(F)c5)C4)cc23)C(=O)N1 (stereo not drawn) [Example 131]	38	62	370
O=C1CCN(c2cnn3ccc(CN4CCN5[C@@H](CCS5(=O)=O)C4)cc23)C(=O)N1 [Example 315, (S)-1-(5-((1,1-dioxidohexahydro-5H-isothiazolo[2,3-a]pyrazin-5-yl)methyl)pyrazolo[1,5-a]pyridin-3-yl)dihydropyrimidine-2,4(1H,3H)-dione]	53	47	1020
O=C1CCN(c2cnn3ccc(CC4CCN(Cc5cccnc5)C4)cc23)C(=O)N1 (stereo not drawn) [Example 129]	35	65	800
CCCC(CCC)N1CCC(Cc2ccn3ncc(N4CCC(=O)NC4=O)c3c2)CC1 [Example 12, 1-(5-((1-(heptan-4-yl)piperidin-4-yl)methyl)pyrazolo[1,5-a]pyridin-3-yl)dihydropyrimidine-2,4(1H,3H)-dione]	84	16	51
C[C@H]1CN(Cc2ccn3ncc(N4CCC(=O)NC4=O)c3c2)CCN1CCC1CCOCC1 [Example 206]	78	22	193
O=C1CCN(c2cnn3ccc(CC4CCN(Cc5cncc(F)c5)CC4)cc23)C(=O)N1 [Example 33, 1-(5-((1-((5-fluoropyridin-3-yl)methyl)piperidin-4-yl)methyl)pyrazolo[1,5-a]pyridin-3-yl)dihydropyrimidine-2,4(1H,3H)-dione]	73	27	31
C[C@@H]1CN(Cc2ccn3ncc(N4CCC(=O)NC4=O)c3c2)C[C@H](C)N1CC1CCOCC1 [Example 256, 1-(5-(((3S,5R)-3,5-dimethyl-4-((tetrahydro-2H-pyran-4-yl)methyl)piperazin-1-yl)methyl)pyrazolo[1,5-a]pyridin-3-yl)dihydropyrimidine-2,4(1H,3H)-dione]	78	22	186
CC(C)C(C)N1CCC(Cc2ccn3ncc(N4CCC(=O)NC4=O)c3c2)CC1 (stereo not drawn) [Example 70, 1-(5-((1-(3-methylbutan-2-yl)piperidin-4-yl)methyl)pyrazolo[1,5-a]pyridin-3-yl)dihydropyrimidine-2,4(1H,3H)-dione]	83	17	21
